# Measured values as given in patent US10881642B2, “Autophagy enhancer and use thereof” (Industry-Academic Cooperation Foundation, Yonsei University, priority 2016, dated 2021).
# How the values were obtained:
# HeLa cells = assay: GCaMP3-ML1 lysosomal Ca2+ release imaging; format: cell-based; conditions: GPN 200 μM; ionomycin 1 μM
# Description: HeLa cells were transfected with perilysosomal GCaMP3-ML1 calcium probe, and Ratiometric image (474 and 410 nm excitation) was obtained.
# GCaMP3 Ca2+ Imaging. HeLa cells were grown on 15 mm coverslips and transfected with plasmid encoding the perilysosomal-localized ML1-GCaMP3 calcium probes.
# [1] = tested on: primary peritoneal macrophages; assay: IL-1β ELISA / inflammasome activation in macrophages; format: cell-based, C57BL/6 mice
# Description: FIG. 5 is the results indicating the present compound MSL reduces the activation of inflammasome and enhances the function of mitochondria. FIG. 5A is the results of the experiment in which primary peritoneal macrophages were isolated and treated with palmitic acid, LPS and MSL and then the concentration of IL-beta was measured from the supernatant using ELISA. Error bars, S.D. **, P<0.01; ***, P<0.001, two-way ANOVA. […]
# Screening of autophagy enhancer. […] Firefly luciferase was determined after mixing 5 μl of lysate with 25 μl of Luciferase Assay Reagent II. Renilla luciferase was then determined after further addition of 20 ul of Stop&Glo Reagent. […] Cytotoxicity was determined by the measurement of LDH release in cell culture media using the LDH kit (Roche), according to the protocol from the manufacturer. […] Imaging and image quantification. […] Formation of acidic vesicular organelles was quantitated by staining the cells with acridine orange (Invitrogen, 5 ug/ml, 10 min). […] Cells or tissues were solubilized in lysis buffer supplemented with protease and phosphatase inhibitors and protein concentration was measured by the Bradford method. Ten to 30 micrograms were loaded on 4-12% Bis-Tris gel (NUPAGE, Invitrogen) or 8-15% SDS-PAGE, transferred to PVDF membranes and analyzed by western blot using the ECL method (Pierce). […]
# [2] = tested on: primary peritoneal macrophages; assay: Mitochondrial ROS (MitoSOX) and potential (MitoTracker) by FACS; format: cell-based, C57BL/6 mice; conditions: PA plus LPS
smiles,measurement,setting,value
CSc1oc(-c2ccccc2)nc1S(=O)(=O)c1ccc(F)cc1 [MSL],lysosomal Ca2+ release,HeLa cells,no increase of lysosomal Ca2+ release
same,release of IL-1β measured by ELISA,[1]; PA in combination with LPS,significantly decreased
same,caspase-1 cleavage and IL-1 β maturation (Western blot),[1]; data not shown,decreased
same,mitochondrial ROS content (MitoSox),[2],significantly reduced
same,mitochondrial potential (MitoTracker Red),[2],significantly reduced
